compound: NC(=O)c1ccc(N(C(N)=O)c2c(F)cccc2F)nc1-c1ccc(F)cc1F [VX-702] + Nc1ncn([C@H]2C[C@H](O)[C@@H](CO)O2)c(=O)n1 [Decitabine] (partner 2 µM); assay: relative viability (nuclei count vs DMSO), 5 days (fraction); higher = more cells survive; details: first compound 2 µM
In short: (§1)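 One day after seeding in 1536-well plates, lung cancer cell lines were dosed by pin tool. Dosing was either single-drug or a fixed anchor-drug dose plus five library-drug doses (not always all listed) in √10 steps. After 5 days, nuclei were stained in one fix-and-stain step and counted on 4× images, and relative viability is the nuclei count of treated wells over that of vehicle wells, given as the median of duplicate plates.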

Row | Cell Line | relative viability
1 | 201T | 0.886
2 | NCI-H1666 | 0.536
3 | NCI-H322M | 0.745
4 | HARA | 0.523
5 | NCI-H1395 | 0.64

compound: NC(=O)c1ccc(N(C(N)=O)c2c(F)cccc2F)nc1-c1ccc(F)cc1F [VX-702] + NC(=O)Nc1cc(-c2cccc(F)c2)sc1C(=O)N[C@H]1CCCNC1 [AZD7762] (partner 0.2 µM); assay: as above; details: first compound 0.02 µM
In short: as §1

Row | Cell Line | relative viability
6 | NCI-H1792 | 0.635
7 | HCC-15 | 1.31
8 | LU99A | 0.35
9 | EKVX | 0.726
10 | NCI-H1437 | 1.06
11 | RERF-LC-KJ | 1.25
12 | NCI-H1734 | 0.561
13 | BEN | 0.841
14 | NCI-H460 | 0.732
15 | H3255 | 0.987
16 | NCI-H1793 | 0.663
17 | NCI-H23 | 0.294
18 | NCI-H838 | 0.937
19 | EPLC-272H | 0.0171
20 | NCI-H3122 | 1.07
21 | NCI-H1915 | 0.697
22 | NCI-H727 | 0.436

Row | Cell Line | relative viability
23 | NCI-H1975 | 0.663
24 | LK-2 | 0.312
25 | HCC-366 | 0.381
26 | NCI-H2087 | 1.53
27 | LCLC-97TM1 | 0.356
28 | NCI-H2405 | 0.822
29 | NCI-H1993 | 0.434
30 | PC-3 [JPC-3] | 0.797
31 | NCI-H2347 | 0.746
32 | LXF-289 | 1.15
33 | NCI-H358 | 0.542
34 | LC-2-ad | 0.837
35 | 201T | 0.585
36 | NCI-H1666 | 0.925
37 | NCI-H322M | 0.544
38 | HARA | 0.313
39 | NCI-H1395 | 0.419

same assay, conditions: first compound 0.2 µM

Row | Cell Line | relative viability
40 | NCI-H1792 | 0.669
41 | HCC-15 | 1.18
42 | LU99A | 0.372
43 | EKVX | 0.673
44 | NCI-H1437 | 1.16
45 | RERF-LC-KJ | 0.963
46 | NCI-H1734 | 0.448
47 | BEN | 0.637
48 | NCI-H460 | 0.585
49 | H3255 | 0.901
50 | NCI-H23 | 0.35
51 | NCI-H838 | 0.912
52 | EPLC-272H | 0.202
53 | NCI-H3122 | 1.05
54 | NCI-H1915 | 0.728
55 | NCI-H727 | 0.526

Row | Cell Line | relative viability
56 | NCI-H1975 | 0.741
57 | LK-2 | 0.234
58 | HCC-366 | 0.218
59 | NCI-H2087 | 1.35
60 | LCLC-97TM1 | 0.175
61 | NCI-H2405 | 0.766
62 | NCI-H1993 | 0.694
63 | PC-3 [JPC-3] | 0.853
64 | NCI-H2347 | 0.8
65 | LXF-289 | 1.14
66 | NCI-H358 | 0.461
67 | LC-2-ad | 0.854
68 | 201T | 0.561
69 | NCI-H1666 | 0.837
70 | NCI-H322M | 0.558
71 | NCI-H1395 | 0.427

same assay, conditions: first compound 0.6325 µM

Row | Cell Line | relative viability
72 | NCI-H1792 | 0.707
73 | HCC-15 | 1.32
74 | LU99A | 0.368
75 | EKVX | 0.407
76 | NCI-H1437 | 1.23
77 | RERF-LC-KJ | 1.11
78 | NCI-H1734 | 0.521
79 | BEN | 0.597
80 | NCI-H460 | 0.721
81 | H3255 | 0.994
82 | NCI-H1793 | 0.542
83 | NCI-H23 | 0.305
84 | NCI-H838 | 1.05
85 | EPLC-272H | 0.234
86 | NCI-H3122 | 1.03
87 | NCI-H1915 | 0.712
88 | NCI-H727 | 0.502

Row | Cell Line | relative viability
89 | NCI-H1975 | 0.763
90 | LK-2 | 0.343
91 | HCC-366 | 0.372
92 | NCI-H2087 | 1.54
93 | LCLC-97TM1 | 0.301
94 | NCI-H2405 | 0.784
95 | NCI-H1993 | 0.736
96 | PC-3 [JPC-3] | 0.894
97 | NCI-H2347 | 0.787
98 | LXF-289 | 1.15
99 | NCI-H358 | 0.45
100 | LC-2-ad | 0.892
101 | 201T | 0.509
102 | NCI-H1666 | 0.922
103 | NCI-H322M | 0.537
104 | HARA | 0.306
105 | NCI-H1395 | 0.411

same assay, conditions: first compound 2 µM

Row | Cell Line | relative viability
106 | NCI-H1792 | 0.706
107 | HCC-15 | 1.19
108 | LU99A | 0.234
109 | EKVX | 0.776
110 | NCI-H1437 | 1.16
111 | RERF-LC-KJ | 1.09
112 | NCI-H1734 | 0.465
113 | BEN | 0.691
114 | NCI-H460 | 0.638
115 | H3255 | 0.996
116 | NCI-H1793 | 0.379
117 | NCI-H23 | 0.208
118 | NCI-H838 | 0.903
119 | EPLC-272H | 0.211
120 | NCI-H3122 | 1.01
121 | NCI-H1915 | 0.718
122 | NCI-H727 | 0.574

Row | Cell Line | relative viability
123 | NCI-H1975 | 0.815
124 | LK-2 | 0.292
125 | HCC-366 | 0.123
126 | NCI-H2087 | 1.34
127 | LCLC-97TM1 | 0.301
128 | NCI-H2405 | 0.826
129 | NCI-H1993 | 0.65
130 | PC-3 [JPC-3] | 0.84
131 | NCI-H2347 | 0.699
132 | LXF-289 | 1.16
133 | NCI-H358 | 0.572
134 | LC-2-ad | 0.973
135 | 201T | 0.449
136 | NCI-H1666 | 0.693
137 | NCI-H322M | 0.499
138 | HARA | 0.331
139 | NCI-H1395 | 0.408

— the supplement of paper PMC10307832
